Article PMC10526274, “Epithelial-Immune Cell Crosstalk Determines the Activation of Immune Cells In Vitro by the Human Cathelicidin LL-37 at Low Physiological Concentrations” (Biomolecules, 2023)

Test system: NKT cells (CD3+CD56+)
Assay: Multiplex xMAP cytokine levels, NKT cells alone stimulated with LL-37
Format: cell-based, human
Details: 1 µM LL-37, 24 h
Method: NKT cells (CD3^+CD56^+) were isolated from PBMCs using the FACSVantageDiVa cell sorter (Becton Dickinson, Franklin Lakes, NJ, USA), equipped with 405, 488, and 643 nm lasers (Supporting Materials, Figure S1). PBMCs were re-suspended in the FACS buffer (PBS containing 0.5% BSA and 2 mM EDTA) and labeled with monoclonal mouse anti-human CD3-APC (clone UCHT1, Beckman Coulter, Pasadena, CA, USA) and mouse anti-human CD56-PE/Cy7 (clone N901, Beckman Coulter) antibodies to isolate NKT cells (CD3^+CD56^+).
Sorted NKT cells were expanded by stimulation with Dynabead Human T-Expander CD3/CD28 magnetic beads (Gibco) in RPMI-1640 medium containing 10% FBS, 1X antibiotic–antimycotic solution, 100 U/mL IL-2 (Gibco), and 50 ng/mL IL-7 (Sci-Store). CD3/CD28 magnetic beads were subsequently removed with a magnet. Expanded NKT cells were washed out of the cytokines and cryopreserved.
Primary blood monocytes, moDCs, and NKT cells were seeded in 600 µL of complete RPMI-1640 with 10% Human AB serum (Capricorn Scientific, Ebsdorfergrund, Germany) and supplemented with 1X antibiotic–antimycotic solution into the wells of 24-well plates at a density of 3–7 × 10^5 cells/well 24 h before the experiment. Then, 24 h later, the medium in each well was replaced by the same medium with 1 µM of LL-37 for the sample wells or fresh medium alone for the control wells, and the permeable inserts with the Caco-2 monolayer with TEER > 400 Ω × cm^2, containing 400 μL of the complete medium in their apical chamber, were immediately placed into the appropriate wells. Also, inserts with the Caco-2 monolayer were placed in cell-free wells of 24-well plates in the same complete RPMI-1640 medium with or without 1 µM of LL-37 as controls. Cells were kept in a CO2-incubator (5% CO2, 37 °C) for another 24 h. Then, culture medium from each well was collected, centrifuged, and frozen at −70 °C.
To quantitatively evaluate a broad spectrum of analytes secreted by human cell cultures at the protein level, multiplex xMAP technology was used. The chosen panel (cat. #HCYTA-60K-PX48, Merck, Darmstadt, Germany) included 48 different magnetic beads with primary antibodies to the following cytokines, chemokines, and growth factors: CCL11 (Eotaxin-1), Flt-3 ligand, CX3CL1 (Fractalkine), sCD40L, FGF-2, EGF, GROα, GM-CSF, G-CSF, IL-1RA, IL-1α, IL-1β, IL-2, IL-3, IL-4, IL-5, IL-6, IL-7, CXCL8 (IL-8), IL-9, IL-10, IL-12p40, IL-12p70, IL-13, IL-15, IL-17A (CTLA8), IL-17E (IL-25), IL-17F, IL-18, IL-22, IL-27, IFNγ, IFNα2, CXCL10 (IP-10), CCL2 (MCP-1), CCL7 (MCP-3), CCL22 (MDC), CXCL9 (MIG), CCL3 (MIP-1α), CCL4 (MIP-1β), CCL5 (RANTES), M-CSF, PDGF-AA, PDGF-AB/BB, TNFα, TNFβ, TGFα, and VEGF-A. The assay was performed in accordance with the manufacturer’s instructions with overnight incubation of the samples with primary antibodies, and the plate was read on a MAGPIX System (Merck) using the xPONENT 4.2 software (Merck). The acquired fluorescence data were analyzed by the MILLIPLEX Analyst v5.1 software (Merck), which realized an advanced curve-fitting algorithm. Levels of the analytes in control and experimental samples were compared with an unpaired two-sample t-test using GraphPad Prism v.8.0.1 (GraphPad Software, Inc., San Diego, CA, USA). The p-values ≤ 0.05 were considered significant.

Substance: LL-37: the only human cathelicidin, host defense antimicrobial peptide of 37 a.a. residues, produced by solid-phase peptide synthesis
- IL-8 level (n=2, control 0.21): 2.37 pg/mL
- IL-10 level (n=2, control 1.55): <1.35↓ pg/ml
- IL-2 level (n=2, control 1.66): 1.16 pg/mL
- FLT-3L level (n=2, control 1.72): 1.67 pg/mL
- EGF level (n=2, control 2.26): 2.26 pg/mL
- IL-6 level (n=2, control 3.12): 1.89 pg/mL
- MCP-3 level (n=2, control 4.7): 4.7 pg/mL
- MDC level (n=2, control 5.04): 2.93 pg/mL
- IL-9 level (n=2, control 7.06): 7.45 pg/mL
- MIG level (n=2, control 10.31): 7.16 pg/mL
- IL-1a level (n=2, control 11.32): 13.27 pg/mL
- IL-27 level (n=2, control 13.33): 29.42 pg/mL
- IFNg level (n=2, control 13.41): 12.33 pg/mL
- TNFa level (n=2, control 14.53): 13.36 pg/mL
- sCD40L level (n=2, control 18.13): <8.15↓ pg/ml
- FGF-2 level (n=2, control 29.25): 21.45 pg/mL
- IP-10 level (n=2, control 56.07): 50.77 pg/mL
- M-GSF level (n=2, control 66.65): 60.35 pg/mL
- MIP-1b level (n=2, control 67.9): 58.14 pg/mL
- GM-CSF level (n=2, control 76.24): 76.06 pg/mL
- IL-13 level (n=2, control 251.23): 237.88 pg/mL
- IL-5 level (n=2, control 323.09): 285.93 pg/mL
- RANTES level (n=2, control 1182): 1237 pg/mL
- MIP-1a level (n=2, control 1355): 1113 pg/mL
- IL-7 level (n=2, control <0.30): <0.30↓ pg/ml
- IL-18 level (n=2, control <0.30): <0.30↓ pg/ml
- IL-3 level (n=2, control <0.55): <0.55↓ pg/ml
- GROa level (n=2, control <0.66): <0.66↓ pg/ml
- TGF-a level (n=2, control <0.68): <0.68↓ pg/ml
- IL-17A level (n=2, control <0.70): <0.70↓ pg/ml
- IL-1b level (n=2, control <0.74): <0.74↓ pg/ml
- IL-4 level (n=2, control <0.87): <0.87↓ pg/ml
- IL-1RA level (n=2, control <0.93): <0.93↓ pg/ml
- TNFb level (n=2, control <0.93): 1 pg/mL
- VEGFa level (n=2, control <1.26): <1.26↓ pg/ml
- MCP-1 level (n=2, control <1.35): <1.35↓ pg/ml
- IL-15 level (n=2, control <1.54): <1.54↓ pg/ml
- IL-12 (p70) level (n=2, control <1.71): <1.71↓ pg/ml
- G-CSF level (n=2, control <2.32): <2.32↓ pg/ml
- Eotaxin level (n=2, control <2.91): <2.91↓ pg/ml
- IL-12 (p40) level (n=2, control <3.33): <3.33↓ pg/ml
- IFNa2 level (n=2, control <3.88): <3.88↓ pg/ml
- PDGF-AB/BB level (n=2, control <5.00): <5.00↓ pg/ml
- PDGF-AA level (n=2, control <6.49): <6.49↓ pg/ml
- IL-22 level (n=2, control <6.61): <6.61↓ pg/ml
- IL-17F level (n=2, control <12.19): <12.19↓ pg/ml
- Fractalkine level (n=2, control <18.09): <18.09↓ pg/ml
- IL-17E/IL-25 level (n=2, control <19.43): <19.43↓ pg/ml
